This is an account of results in paper PMC13101830 (Pharmaceutical research, 2023).

In this data set the test system is BBB-mimicking system with the co-culture of bEnd.3 and astrocytes. The experiment in a line: In vitro BBB permeability assay in BBB-mimicking co-culture model. To be noted: 10 μg/ml in top chamber, 30-120 min, 37°C. In kind it is in vitro ADME, mouse.

Where a SMILES comes first, the peptide text is derived from it.

`N[C@@H](Cc1cnc[nH]1)C(=O)N[C@@H](Cc1ccc(O)cc1)C(=O)O` [His-Tyr] (H-His-Tyr-OH): the “permeability coefficient (Pe), apical to basolateral (A > B)” value is listed as 0.12 ± 0.02 × 10^−5 cm^2/second.
